Experimental data reported in patent publication US20120035196A1, “CARBOXYLIC ACID COMPOUND” (priority 2009, published 2012).

Key:
human GPR40 = target: T1, human GPR40 (Homo sapiens, UniProt O14842, R211H); assay: Measurement of GPR40 agonistic activity (FLIPR, change in intracellular calcium concentration); assay type: cell-based; conditions: CHO cell strain expressing human GPR40; changes in fluorescence intensity after 1 minute
T1 construct: expressed in transfected cells
Source text: Test Method 1: Measurement of GPR40 Agonistic Activity i) Cloning of Human GPR40
A full-length sequence of GPR40 was obtained by PCR method using human genomic DNA (Clontech) as a template in accordance with the procedure shown below.
An oligonucleotide consisting of the base sequence represented by SEQ ID NO: 1 was used as the forward primer, and an oligonucleotide consisting of the base sequence represented by SEQ ID NO: 2 as the reverse primer. In this connection, a base sequence comprising a XbaI recognition region was added to the respective 5′-termini of the aforementioned forward primer and reverse primer. PCR was carried out in the presence of 5% dimethylsulfoxide (DMSO) using a Taq DNA polymerase (Ex Taq DNA polymerase; Takara Bio), by repeating 30 times of a cycle consisting of 94° C. (15 seconds)/55° C. (30 seconds)/72° C. (1 minute). As a result, a DNA fragment of about 0.9 kbp was amplified. This DNA fragment was digested with XbaI and then inserted into the XbaI site of a plasmid pEF-BOS-dhfr (Nucleic acids Research, 18, 5322, 1990), thereby obtaining a plasmid pEF-BOS-dhfr-GPR40.
The base sequence of the GPR40 gene in the pEF-BOS-dhfr-GPR40 was determined by the dideoxy terminator method using a DNA sequencer (ABI 377 DNA Sequencer, Applied Biosystems). The base sequence of the GPR40 gene was represented by the base sequence SEQ ID NO: 3. […]
ii) Preparation of GPR40 Stable Expression Cell
As the cell for expressing GPR40 protein, a CHO dhfr cell (a dihydrofolate reductase (dhfr) gene-deficient CHO cell) was used. Also, as the plasmid for expressing GPR40 protein, the plasmid pEF-BOS-dhfr-GPR40 obtained in the aforementioned i) was used. The CHO dhfr cell was inoculated into an αMEM medium containing 10% fetal calf serum (FCS) using a 6 well plate (Asahi Techno Glass) and cultured overnight to a confluence of 80 to 90%, and then 2 μg per well of the plasmid pEF-BOS-dhfr-GPR40 was gene-transferred using a transfection reagent (Lipofectamine 2000; Invitrogen). After 24 hours of culturing from the gene transfer, the cells were diluted and inoculated again. […] After 20 days of culturing, the formed colonies of cells were individually recovered and cultured to obtain CHO cells stably expressing GPR40. From these, cells having high reactivity for intrinsic ligands oleic acid and linoleic acid were selected. […]
iii) Measurement of GPR40 Agonistic Activity
The present test was measured by FLIPR (registered trademark, Molecular Devices) using a change in intracellular calcium concentration as the index. Hereinafter, the test method will be shown.
A CHO cell strain in which human GPR40 was expressed was inoculated into a 384 well black plate (Becton Dickinson) at 6×10^3 cells per well portion and cultured overnight in a CO2 incubator.
Using a Calcium-3 assay kit (Molecular Devices), one bottle of the phosphorescent pigment was dissolved in 10 ml of HBSS-HBEPES buffer (pH 7.4, 1×HBSS, 20 mM HEPES, Invitrogen). 35.68 mg of Probenecid (Sigma) was dissolved in 250 μl of 1 M NaOH and adjusted by adding 250 μl of the HBSS-HEPES buffer. A phosphorescent pigment solution was prepared by mixing 16 ml of HBSS-HEPES buffer, 640 μl of the phosphorescent pigment and 32 μl of probenecid per one plate. The medium was discarded from the plate, and the phosphorescent pigment solution was dispensed at 40 μl per well portion and then incubated at room temperature for 2 hours. Each compound to be tested was dissolved in DMSO and then diluted with HBSS-HEPES buffer and dispensed in 10 μl portions into the plate, thereby starting the reaction, and changes in the intracellular calcium concentration were measured by FLIPR. The EC50 value of each compound to be tested was calculated by a dose-response curve of changes in fluorescence intensity after 1 minute of the measurement.

Male ICR mice = assay: Normal mice single oral glucose tolerance test; assay type: in vivo; conditions: Mus musculus, 0.5 h, orally 10 mg/kg 30 minutes before glucose loading (2 g/kg), 30 minutes after glucose loading, relative to control group, read-out: Blood glucose increase inhibition rate
Description: Test Method 3: Normal Mice Single Oral Glucose Tolerance Test
The present test was to examine the blood glucose increase inhibiting action of the test compound after glucose loading, using normal mice. Hereinafter, the test method will be shown.
Male ICR mice (6 weeks of age) after 1 week of acclimatization were subjected to overnight fasting and used as test animals. The test compound was made into a 0.01 M aqueous sodium hydroxide solution and orally administered at a dose of 10 mg/kg 30 minutes before the glucose loading (2 g/kg). A 0.01 M aqueous sodium hydroxide solution was administered to the control group. The blood glucose increase inhibitory ratio (%) after 30 minutes of glucose loading was calculated, relative to the control group.
When the compound of Example 72 described in Pamphlet of International Publication WO2005/087710 was orally administered at 10 mg/kg by the same method as the test method 3 above, the blood glucose increase inhibition rate was measured and found to be 9%, whereas when the compound was orally administered at 30 mg/kg, the blood glucose increase inhibition rate was 20%. […] Further, in the present test, a minimum administration amount showing a blood glucose increase inhibition rate of 20% or more or a minimum administration amount showing a significance (Dunnet multiple comparison test) relative to a control was taken as a minimum effective dose (MED).

T1 sequence (O14842 whole entry R211H): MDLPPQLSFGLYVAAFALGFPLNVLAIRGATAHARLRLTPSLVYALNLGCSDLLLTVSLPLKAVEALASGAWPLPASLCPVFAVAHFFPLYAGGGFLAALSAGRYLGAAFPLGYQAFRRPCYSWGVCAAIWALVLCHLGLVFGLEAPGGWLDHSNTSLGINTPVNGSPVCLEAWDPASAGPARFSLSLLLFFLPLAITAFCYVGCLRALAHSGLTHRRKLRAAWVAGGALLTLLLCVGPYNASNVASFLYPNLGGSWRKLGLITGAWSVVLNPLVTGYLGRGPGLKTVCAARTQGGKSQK

SMILES | EC50 (human GPR40) [nM] | inhibition in vivo at 10 mg/kg (Male ICR mice) [%]
Cc1cc(OC[C@@H](O)CO)cc(C)c1-c1cccc(COc2ccc3c(c2)OC2(CC2)C3CC(=O)O)c1C (single isomer, unassigned) [Example 25-5a] | 350 | –
Cc1cc(OC[C@@H](O)CO)cc(C)c1-c1cccc(COc2ccc3c(c2)OC2(CC2)C3CC(=O)O)c1C (single isomer, unassigned) [Example 25-5b] | 260 | –
Cc1cc(OCC[C@H](O)CO)cc(C)c1-c1cccc(COc2ccc3c(c2)OC2(CC2)C3CC(=O)O)c1C (single isomer, unassigned) [Example 25-7a] | 490 | –
Cc1cc(OCC[C@H](O)CO)cc(C)c1-c1cccc(COc2ccc3c(c2)OC2(CC2)C3CC(=O)O)c1C (single isomer, unassigned) [Example 25-7b] | 330 | –
Cc1cc(OCCO)cc(C)c1-c1cccc(CNc2ccc3c(c2)CC2(CC2)C3CC(=O)O)c1C (single isomer, unassigned) [Example 25b, [5′-({[4′-(2-hydroxyethoxy)-2,2′,6′-trimethylbiphenyl-3-yl]methyl}amino)-1′,3′-dihydrospiro[cyclopropan-1,2′-inden]-1′-yl]acetic acid] | 210 | 33
Cc1cc(OCCO)cc(C)c1-c1cccc(COc2ccc3c(c2)-c2ccccc2C3CC(=O)O)c1C (stereo not drawn) [Example 2, sodium (3-{[4′-(2-hydroxyethoxy)-2,2′,6′-trimethylbiphenyl-3-yl]methoxy}-9H-fluoren-9-yl)acetate] | 520 | 37
Cc1cc(OCCC(C)(C)O)cc(C)c1-c1cccc(CNc2ccc3c(c2)CC2(CC2)C3CC(=O)O)c1C (stereo not drawn) [Example 2-2] | 790 | 34
Cc1cc(OC[C@H](O)CO)cc(C)c1-c1cccc(COc2ccc3c(c2)CC2(CC2)C3CC(=O)O)c1C (stereo partly drawn) [Example 4, sodium {5′-[(4′-{[(2R)-2,3-dihydroxypropyl]oxy}-2,2′,6′-trimethylbiphenyl-3-yl)methoxy]-1′,3′-dihydrospiro[cyclopropan-1,2′-inden]-1′-yl}acetate] | 250 | 20
Cc1cccc(C)c1-c1cccc(COc2ccc3c(c2)-c2ccccc2C3CC(=O)O)c1C (stereo not drawn) [Example 6, 0.5 calcium {3-[(2,2′,6′-trimethylbiphenyl-3-yl)methoxy]-9H-fluoren-9-yl}acetate] | 780 | 35
Cc1cc(OC[C@H](O)CO)cc(C)c1-c1cccc(COc2ccc3c(c2)-c2ccccc2C3CC(=O)O)c1C (stereo partly drawn) [Example 8, sodium {3-[(4′-{[(2R)-2,3-dihydroxypropyl]oxy}-2,2′,6′-trimethylbiphenyl-3-yl)methoxy]-9H-fluoren-9-yl}acetate] | 610 | 25
COCCOc1cc(C)c(-c2cccc(CNc3ccc4c(c3)CC3(CC3)C4CC(=O)O)c2C)c(C)c1 (stereo not drawn) [Example 8-3] | 610 | 21
Cc1nc(OCCC(C)(C)O)nc(C)c1-c1cccc(COc2ccc3c(c2)CC2(CC2)C3CC(=O)O)c1C (stereo not drawn) [Example 8-12] | 590 | 24
Cc1cc(OCCO)cc(C)c1-c1cccc(COc2ccc3c(c2)OC2(CC2)C3CC(=O)O)c1C (stereo not drawn) [Example 20, sodium (6-{[4′-(2-hydroxyethoxy)-2,2′,6′-trimethylbiphenyl-3-yl]methoxy}-3H-spiro[1-benzofuran-2,1′-cyclopropan]-3-yl)acetate] | 490 | 40
Cc1cc(OCCC(C)(C)O)cc(C)c1-c1cccc(COc2ccc3c(c2)OC2(CC2)C3CC(=O)O)c1C (stereo not drawn) [Example 21, sodium (6-{[4′-(3-hydroxy-3-methylbutoxy)-2,2′,6′-trimethylbiphenyl-3-yl]methoxy}-3H-spiro[1-benzofuran-2,1′-cyclopropan]-3-yl)acetate] | 810 | 43
COCCOc1cc(C)c(-c2cccc(COc3ccc4c(c3)OC3(CC3)C4CC(=O)O)c2C)c(C)c1 (stereo not drawn) [Example 21-1] | 750 | 30
CCOCCOc1cc(C)c(-c2cccc(COc3ccc4c(c3)OC3(CC3)C4CC(=O)O)c2C)c(C)c1 (stereo not drawn) [Example 21-2] | 810 | 23
COCCCOc1cc(C)c(-c2cccc(COc3ccc4c(c3)OC3(CC3)C4CC(=O)O)c2C)c(C)c1 (stereo not drawn) [Example 21-3] | 710 | 32
Cc1cc(OC[C@H](O)CO)cc(C)c1-c1cccc(COc2ccc3c(c2)OC2(CC2)C3CC(=O)O)c1C (stereo partly drawn) [Example 22, sodium {6-[(4′-{[(2R)-2,3-dihydroxypropyl]oxy}-2,2′,6′-trimethylbiphenyl-3-yl)methoxy]-3H-spiro[1-benzofuran-2,1′-cyclopropan]-3-yl}acetate] | 250 | 34
Cc1cc(OC[C@@H](O)CO)cc(C)c1-c1cccc(COc2ccc3c(c2)OC2(CC2)C3CC(=O)O)c1C (stereo partly drawn) [Example 22-1] | 270 | 35
Cc1cc(OCC[C@@H](O)CO)cc(C)c1-c1cccc(COc2ccc3c(c2)OC2(CC2)C3CC(=O)O)c1C (stereo partly drawn) [Example 22-2] | 430 | 34
Cc1cc(OCC[C@H](O)CO)cc(C)c1-c1cccc(COc2ccc3c(c2)OC2(CC2)C3CC(=O)O)c1C (stereo partly drawn) [Example 22-3] | 470 | 38
Cc1nc(OCCO)nc(C)c1-c1cccc(COc2ccc3c(c2)CC2(CC2)C3CC(=O)O)c1C (stereo not drawn) [Example 23, [5′-({3-[2-(2-hydroxyethoxy)-4,6-dimethylpyrimidin-5-yl]-2-methylbenzyl}oxy)-1′,3′-dihydrospiro[cyclopropan-1,2′-inden]-1′-yl]acetic acid] | 520 | 20
Cc1cc(OCCO)cc(C)c1-c1cccc(COc2ccc3c(c2)OC2(CC2)C3CC(=O)O)c1C (stereo not drawn) [Example 25-3a] | 560 | –
Cc1cc(OCCO)cc(C)c1-c1cccc(COc2ccc3c(c2)OC2(CC2)C3CC(=O)O)c1C (stereo not drawn) [Example 25-3b] | 190 | –
